Tested on: Plasmopara viticola
Experiment: Fungicidal control of grape downy mildew (Comparison Trial 3, inoculation the next day)
Type: in vivo
Details: 250 ppm active ingredient; grape cuttings; inoculated next day; untreated plants infected to 80%
Method: The active compounds, separately or together, were formulated as a 10% emulsion in a mixture of 70% by weight of cyclohexanone, 20% by weight of Nekanil® LN (Lutensol® AP6, wetting agent having emulsifying and dispersant action based on ethoxylated alkylphenols) and 10% by weight of Wettol® EM (nonionic emulsifier based on ethoxylated castor oil) and diluted with water to the desired concentration. Grape cuttings of the cultivar “Müller-Thurgau” were grown in pots to the 4 to 5 leaf stage. These plants were sprayed to run-off with an aqueous suspension, containing the concentration of active ingredient or their mixture mentioned in the table below, prepared from a stock solution containing 10% of the active ingredient, 85% cyclohexanone and 5% emulsifier. The plants were allowed to air-dry. The next day they were inoculated with an aqueous spore suspension of Plasmopara viticola by spraying it at the lower leaf-side. Then the trial plants were immediately transferred for 24 h to a humid chamber with 22-24° C. and a relative humidity close to 100%. For a period of 5 days, cultivation followed in a greenhouse at 20-25° C. and a relative humidity about 50-80%. To stimulate the outbreak of the disease symptoms, the plants were transferred to a humid chamber again for 24 hours. Then the extent of fungal attack on the lower leaf surface was visually assessed as % diseased leaf area.

SMILES	infection (% diseased leaf area, lower leaf surface)
Cc1ccccc1-c1c(Cl)nc2ncnn2c1NC(C)C(F)(F)F (centres unmarked) [Compound A]	80%

Tested on: Blumeria graminis f. sp. tritici
Experiment: Fungicidal control of powdery mildew on wheat, protective spray
Type: in vivo
Details: 63 ppm active ingredient, assessed after 7 days, untreated plants infected to 85%
From the text: The active compounds, separately or together, were formulated as a 10% emulsion in a mixture of 70% by weight of cyclohexanone, 20% by weight of Nekanil® LN (Lutensol® AP6, wetting agent having emulsifying and dispersant action based on ethoxylated alkylphenols) and 10% by weight of Wettol® EM (nonionic emulsifier based on ethoxylated castor oil) and diluted with water to the desired concentration. The first fully developed leaves of pot grown wheat of the variety “Kanzler” were sprayed to run-off with an aqueous suspension, containing the concentration of active ingredient or their mixture mentioned in the table below, prepared from a stock solution containing 10% of the active ingredient, 85% cyclohexanone and 5% emulsifier. The next day the treated plants were inoculated with spores of Blumeria graminis f. sp. tritici by shaking heavily infestated stock plants over the treated pots. After cultivation in the greenhouse for 7 days at 22-26° C. and a relative humidity between 60 to 90% the extent of fungal attack on the leaves was visually assessed as % diseased leaf area. The test was conducted as described in Comparison trial 2.

SMILES	infection (% diseased leaf area)
Cc1ccccc1-c1c(Cl)nc2ncnn2c1NC(C)C(F)(F)F (centres unmarked) [Compound A]	30%

Tested on: Alternaria solani
Experiment: Fungicidal control of early blight on tomatoes, protective spray
Type: in vivo
Details: 63 ppm active ingredient; tomato plants; assessed after 6 days; untreated plants infected to 90%
Method: The active compounds, separately or together, were formulated as a 10% emulsion in a mixture of 70% by weight of cyclohexanone, 20% by weight of Nekanil® LN (Lutensol® AP6, wetting agent having emulsifying and dispersant action based on ethoxylated alkylphenols) and 10% by weight of Wettol® EM (nonionic emulsifier based on ethoxylated castor oil) and diluted with water to the desired concentration. Young seedlings of tomato plants of the variety “Groβe Fleischtomate St. Pierre” were grown in pots to the 2 to 4 leaf stage. These plants were sprayed to run-off with an aqueous suspension, containing the concentration of active ingredient mentioned in the table below, prepared from a stock solution containing 10% of the active ingredient, 85% cyclohexanone and 5% emulsifier. The next day, the treated plants were inoculated with an aqueous suspension of Alternaria solani containing 0.2×10^6 spores per ml. Then the trial plants were immediately transferred to a humid chamber. After 6 days at 20 to 23° C. and a relative humidity close to 100%, the extent of fungal attack on the leaves was visually assessed as % diseased leaf area. The test was conducted as described in Comparison trial 1.

SMILES	infection (% diseased leaf area)
Cc1ccccc1-c1c(Cl)nc2ncnn2c1NC(C)C(F)(F)F (centres unmarked) [Compound A]	15%

Same assay, conditions: 250 ppm active ingredient; tomato plants; untreated plants infected to 90%

SMILES	infection (% diseased leaf area)
CCC(C)Nc1c(-c2ccc(F)cc2C)c(Cl)nc2ncnn12 (racemic) [I-35]	no infection
Cc1cc(F)ccc1-c1c(Cl)nc2ncnn2c1NC(C)C(C)C (racemic) [I-38]	no infection
Cc1cc(F)ccc1-c1c(Cl)nc2ncnn2c1NC(C)C(C)(C)C (racemic) [I-41]	no infection
Cc1cc(F)ccc1-c1c(Cl)nc2ncnn2c1NC(C)C(F)(F)F (racemic) [I-44]	no infection
C=C(C)CN(CC)c1c(-c2c(C)cccc2F)c(Cl)nc2ncnn12 [I-7]	no infection
Cc1cccc(F)c1-c1c(Cl)nc2ncnn2c1N1CCC(C)CC1 [I-9]	no infection
Cc1cccc(F)c1-c1c(Cl)nc2ncnn2c1NC1CCCC1 [I-10]	no infection
C=C(C)CN(CC)c1c(-c2ccc(F)cc2C)c(Cl)nc2ncnn12 [I-28]	no infection
Cc1cc(F)ccc1-c1c(Cl)nc2ncnn2c1N1CCC(C)CC1 [I-30]	no infection
Cc1cc(Cl)ccc1-c1c(Cl)nc2ncnn2c1N1CCC(C)CC1 [I-66]	no infection
Cc1cc(Cl)ccc1-c1c(Cl)nc2ncnn2c1NCC(F)(F)F [I-83]	no infection

Reference: patent publication US20040162286A1, “Substituted 6-(2-tolyl)-triazolopyrimidines as fungicides” (priority 2001, published 2004)
